Test results published in ChEMBL document CHEMBL5614420, “Development of peptoid-based heteroaryl-decorated histone deacetylase (HDAC) inhibitors with dual-stage antiplasmodial activity” (Eur J Med Chem, 2024).

Assays:
[1] = Selectivity index, ratio of IC50 for HEK293 cells to IC50 for CQ-sensitive asexual ring-stage Plasmodium falciparum 3D7 infected in erythrocytes; conditions: human
Plasmodium berghei [2] = test: Antiplasmodial activity against exo-erythrocytic stage Plasmodium berghei sporozoites expressing ANKA-GFPLuc-SMCON infected in human HepG2-A16-CD81 cells expressing EGFP assessed as parasitic growth inhibition by […]; assay type: functional, organism-based
[3] = Selectivity index, ratio of IC50 for HEK293 cells to IC50 for multidrug-resistant asexual ring-stage Plasmodium falciparum Dd2 infected in erythrocytes; conditions: human
in vitro [4] = conditions: human, liver microsomes
[5] = Cytotoxicity against HEK293 cells incubated for 24 hrs by Neutral Red Uptake assay; conditions: human
Plasmodium falciparum [6] = test: Resistance index, ratio of IC50 for multidrug-resistant asexual ring-stage Plasmodium falciparum Dd2 infected in erythrocytes to IC50 for CQ-sensitive asexual ring-stage Plasmodium falciparum 3D7 infected in erythrocytes; assay type: functional
in vitro [7] = conditions: human, liver microsomes; remark: listed apart in the source
Plasmodium falciparum [8] = test: Antiplasmodial activity against multidrug-resistant asexual ring-stage Plasmodium falciparum Dd2 infected in erythrocytes assessed as parasitic growth inhibition measured after 72 hrs by ELISA; assay type: functional, organism-based; conditions: Dd2, Erythrocyte
Plasmodium falciparum [9] = test: Antiplasmodial activity against CQ-sensitive asexual ring-stage Plasmodium falciparum 3D7 infected in erythrocytes assessed as parasitic growth inhibition measured after 72 hrs by ELISA; assay type: functional, organism-based; conditions: 3D7, Erythrocyte
[10] = Selectivity index, ratio of IC50 for HEK293 cells to IC50 for exo-erythrocytic stage Plasmodium berghei sporozoites expressing GFP-Luc fused genes infected in human HepG2-A16-CD81 cells expressing EGFP; assay type: toxicity, cell-based; conditions: read-out: Ratio IC50
Plasmodium berghei [11] = test: Antiplasmodial activity against exo-erythrocytic stage Plasmodium berghei sporozoites expressing GFP-Luc fused genes infected in human HepG2-A16-CD81 cells expressing EGFP assessed as parasitic growth inhibition measured for 20 hrs by Bright-Glo Luciferase Assay; assay type: functional, organism-based; conditions: HepG2-A16-CD81, 20 h
Plasmodium falciparum [12] = test: Antiplasmodial activity against synchronous ring-stage Plasmodium falciparum Dd2 infected in human erythrocytes assessed as parasitic growth inhibition measured after 48 hrs by [3H]hypoxanthine incorporation assay; assay type: functional, organism-based; conditions: Dd2, Erythrocyte
[13] = Cytotoxicity against human NFF cells incubated for 72 hrs by SRB assay
[14] = Selectivity index, ratio of IC50 for human NFF cells to IC50 for synchronous ring-stage Plasmodium falciparum 3D7 infected in human erythrocytes
Plasmodium falciparum [15] = test: Antiplasmodial activity against synchronous ring-stage Plasmodium falciparum 3D7 infected in human erythrocytes assessed as parasitic growth inhibition measured after 48 hrs by [3H]hypoxanthine incorporation assay; assay type: functional, organism-based; conditions: 3D7, Erythrocyte

SMILES	IC50 at 24 h [5] [nM]	IC50 (Plasmodium falciparum [12]) [nM]	IC50 at 72 h [13] [nM]	selectivity ratio [14]	IC50 (Plasmodium falciparum [15]) [nM]	also measured
CC(C)c1ccc(C(=O)N(CC(=O)NCc2ccccc2)Cc2ccc(C(=O)NO)cc2)cc1	69000					selectivity ratio [1]: 1100; IC50 (Plasmodium berghei [2]): 16 nM; selectivity ratio [3]: 284; half-life at 1 h, 1 µM (in vitro [4]): 12.4 min; Ratio IC50 (Plasmodium falciparum [6]): 4; microsomal CLint at 1 h, 1 µM (in vitro [7]): 112 µL/min/mg; IC50 (Plasmodium falciparum [8]): 243 nM; IC50 (Plasmodium falciparum [9]): 63 nM; selectivity ratio [10]: 4310
O=C1C(O)=C([C@H]2CC[C@H](c3ccc(Cl)cc3)CC2)C(=O)c2ccccc21 [ATOVAQUONE]						IC50 (Plasmodium berghei [11]): < 0.051 nM
O=C(/C=C/c1cccc(S(=O)(=O)Nc2ccccc2)c1)NO [BELINOSTAT]		130	2370	40	60	
CCN(CC)CCCC(C)Nc1ccnc2cc(Cl)ccc12 (configuration not stated) [CHLOROQUINE]	265000					
Cc1[nH]c2ccccc2c1CCNCc1ccc(/C=C/C(=O)NO)cc1 [PANOBINOSTAT]		30	70	7	10	
C/C=C1\NC(=O)[C@H]2CSSCC/C=C/[C@H](CC(=O)N[C@H](C(C)C)C(=O)N2)OC(=O)[C@H](C(C)C)NC1=O [ROMIDEPSIN]			1	< 1		
